The source of these data is patent publication US20250345318A1, “COMPOUND AND USE THEREOF IN PREVENTING OR TREATING RADIATION DAMAGE” (SIMCERE PHARMACEUTICAL CO., LTD., priority 2022, published 2025).

The term AUC(0-t) denotes the area under the concentration-time curve up to a stated or last time point. As usually defined, the Cmax is the highest concentration seen after dosing. A word on the Tmax: it is the time at which the peak concentration occurs. One may read the half-life as the time in which the quantity being followed falls by half. Read a high half-life as slow decline.

Series [1] in a line: Pharmacokinetics of R-JAC4 and S-JAC4 in mice (Example 17). The series is classed as in vivo. The settings on record: for F / clearance (CL) / AUC(0-t) / Cmax / Tmax / half-life / C0 / Vd: female BALB/c mice; for F: intragastric 10 mg/kg vs intravenous 3 mg/kg; for clearance (CL) / AUC(0-t) / Cmax / Tmax / half-life / C0 / Vd: mean, n = 3; for AUC(0-t) / Cmax / Tmax / half-life / C0 / Vd: mouse, plasma; for Vd: read-out: Vss.

Another series deals with C57/BL6 mice. The experiment in a line: R-JAC4 in radiation enteritis mouse model: plasma FD4, small intestine length (Example 18). The series is classed as in vivo. The settings on record: R-JAC4 10 mg/kg and 3 mg/kg intragastric, ABI 12 Gy. How it is done: The formulation of the vehicle for R-JAC4 was polyethylene glycol:ethanol:physiological saline=40:7.5:52.5, v/v/v. The vehicle group and the treatment groups were given the vehicle or treatment at the same volume by the same route.
The vehicle was administered to the vehicle control group intragastrically, and R-JAC4 10 mg/kg and R-JAC4 3 mg/kg interventions were given to the R-JAC4 treatment groups intragastrically. The treatment started 7 days before the X-ray radiation and was administrated once daily until the day before the end of study, for a total of […].
X-ray radiation: The mice were anesthetized intraperitoneally and exposed to ABI using an X-ray irradiator (12 Gy, 1.25 Gy/min). The irradiated region was a 3 cm region above the iliac joint below the chest, so as to induce gastrointestinal radiation syndrome.
Permeability detection in the small intestine: On day 4 post-radiation, FITC-dextran 4 kDa, abbreviated as FD4, was given to the mice intragastrically at a dose of 0.6 mg/g body weight. Peripheral blood was collected in an anticoagulation tube after 4 h, and the plasma was collected by centrifugation. The samples were added to a 96-well plate at 100 μL, and the fluorescence intensity was measured (excitation wavelength: 485 nm, emission wavelength: 535 nm). The FD4 concentrations of the samples were calculated by regression according to a standard curve. […]

The next series has as its system JWA^IEC WT mice. The series is described as follows: R-JAC4 in radiation enteritis model, JWA^IEC WT mice (Example 19). The series is classed as in vivo. The settings on record: R-JAC4 10 mg/kg. The method, then:
(§1) Intestinal epithelial cell JWA-knockout mice (JWA^IEC KO) and their wild type littermates (JWA^IEC WT) were subjected to radiation enteritis modeling in the same manner as in Example 17 and were given R-JAC4 10 mg/kg treatment. In addition to the detection of FD4 concentration, the plasma was collected from the mice at the end of study to detect the plasma proinflammatory cytokine level by ELISA and the activity of antioxidant-related enzymes by biochemical tests.

In the next series the test system is JWA^IEC KO mice. The experiment in a line: R-JAC4 in radiation enteritis model, JWA^IEC KO mice (Example 19). It is filed as in vivo. How it is done:
as §1

A further series concerns Caco-2 cells. The series is described as follows: Integrity of irradiated single Caco-2 cell layer: electric resistance, FD4 permeability (Example 23). The series is classed as cell-based. The settings on record: 20 Gy, 24 h later. The method, then: Caco-2 cells were cultured in a mixture of 78% MEM+20% FBS+1% P/S+1% NEAA and seeded in a 24-well chamber at a density of 10,000 cells/well, with the culture medium refreshed once every 2 days until day 11. The cells were then pretreated with DMSO or 1, 3, or 10 μM R-JAC4 for 3 days. The single cell layer model was constructed during the 14 days. The model was then irradiated at a dose of 0 Gy or 20 Gy at a dose rate of 2.5 Gy/min, and the electric resistance of the single cell layer and the permeability of FD4 were measured 24 h later.
For orientation: Passage across Caco-2 layers is used to estimate intestinal permeability.

[2] abbreviates: single intravenous dose 3 mg/kg.
[3] abbreviates: po, single intragastric dose 10 mg/kg.
[4] abbreviates: R-JAC4, JWA^IEC KO mice vs vehicle control.
Setting [5] is: 1 μM R-JAC4 3 days pretreatment.
Setting [6] is: 3 μM R-JAC4 3 days pretreatment.

Consider `c1ccc(CSc2nnc([C@H]3COc4ccccc4O3)o2)nc1` [R-JAC4], for which the “oral bioavailability, comparison of isomers” value in series [1] (BALB/c mice, calculated by F=(AUC-po/Dose-po)/(AUC-iv/Dose-iv)) is “higher than that of S-JAC4”. Besides, the F in series [1] is 3.94%. In series [1] (setting [2]), the “clearance (CL)” value stood at 140 mL/min/kg, the AUC(0-t) was 374 ng·h/mL, the C0 worked out at 1680 ng/mL and the half-life was 36 min. In series [1] (setting [2]), the Vd turned out to be 3.64 L/kg. In series [1] (setting [3]), the AUC(0-t) was found to be 49.5 ng·h/mL, the Cmax is 176 ng/mL, the Tmax came to 4.98 min and the half-life was 22.7 min. Besides, the “shortening extent of the small intestine” value in the series with C57/BL6 mice is “effective in reducing the shortening extent of the small intestine in a dose-dependent manner”. Further, the “concentration of fluorescein FD4 in the plasma” value in the series on C57/BL6 mice (day 4 post-radiation) was “dose-dependent down-regulation effect”. Moreover, in the series on JWA^IEC WT mice, the “activity of plasma glutathione peroxidase and catalase” value is recorded as “significantly increased”; the “plasma FD4 level” value is on record as “significantly downregulated”; the “plasma levels of proinflammatory cytokines TNF-α and IL-1β” value is on record as “significantly reduced”. Moreover, the “plasma FD4 level” value in the series with JWA^IEC KO mice (R-JAC4 10 mg/kg, JWA^IEC KO mice vs vehicle control) is recorded as “no significant change”. In the series on JWA^IEC KO mice (setting [4]), the “activity of plasma glutathione peroxidase and catalase” value is “no significant changes”; the “plasma levels of proinflammatory cytokines TNF-α and IL-1β” value is listed as “no significant changes”. Also, in the series on Caco-2 cells (setting [5]), the “electric resistance of the single Caco-2 cell layer” value (from here on “electric resistance”) is listed as 1016±64.65 Ω·cm^2 and the “permeability of FD4 through the single cell layer” value is 410.60 ± 50.99 ng/mL. In the series with Caco-2 cells (setting [6]), the “electric resistance” value is recorded as 1138±25.97 Ω·cm^2 and the “permeability of FD4 through the single cell layer” value is 345.40 ± 29.85 ng/mL. Further, the “electric resistance” value in the series with Caco-2 cells (10 μM R-JAC4 3 days pretreatment) is on record as 1109±101.20 Ω·cm^2.
As for `c1ccc(CSc2nnc([C@@H]3COc4ccccc4O3)o2)nc1` [S-JAC4], the F in series [1] is recorded as 1.32%. In addition, in series [1] (setting [2]), the “clearance (CL)” value is 121 mL/min/kg, the AUC(0-t) came to 410 ng·h/mL, the C0 came to 1650 ng/mL and the half-life is 116 min. Further, the Vd in series [1] (setting [2]) was determined as 7.72 L/kg. In addition, in series [1] (setting [3]), the AUC(0-t) is 17.2 ng·h/mL, the concentration peaked (Cmax) at 48.7 ng/mL, the Tmax amounted to 4.98 min and the half-life was 27.1 min.
